# Measurements as given in patent EP1650209A1, “Griseusin derivatives and their use as antitumor agents” (Oncotest GmbH, priority 2004, dated 2006).
# Key:
# Experiment in all cases: Proliferation inhibition of cancer cells (propidium iodide fluorescence)
# Assay type in all cases: cell-based, human
# BXF 1218L = conditions: Bladder, BXF 1218L cell line
# Method: (§1) Using various human cancer cells in vitro, the concentrations of the test compounds (A, B, C, D, E, F), which inhibit the proliferation of cancer cells by 50% (IC50) and 70% (IC70) were determined. Specifically, each cell line of bladder cancer (BXF 1218L and T-24), glioblastoma (CNXF 498NL), colic cancer (HCT-116 and HT-29), gastric cancer (GXF 251 L), head and neck cancer (HNXF 536L), non small cell lung cancer (LXF 1121L, LXF 289L, LXF 526L, LXF 529L, LXF 629L and H-460), mammary cancer (MAXF 401NL, MCF-7, MDA-231 and MDA-468), melanoma (MEXF 276L, MEXF 394NL, MEXF 462NL, MEXF 514L and MEXF 520L), ovary cancer (OVXF 1619L, OVXF 899L and OVCAR-3), pancreatic cancer (PAXF 1657L and PANC-1), prostate cancer (22Rv1, DU-145, LNCaP and PC3M), pleuramesothelioma (PXF 1752L), renal cancer (RXF 1781 L, RXF 393NL, RXF 486L and RXF 944L), and uterine cancer (UXF 1138L) is added to a 96-well microtiter plate at a density of 3.6-11.2x10^3 cells per well in RPMI-1640 medium containing 10% fetal calf serum and 0.1% gentamicin and incubated for 24 hours. After 24 hours RPMI-1640 medium containing 10% fetal calf serum and 0.1% gentamicin, together with a test compound, is added thereto. Then, this plate is incubated at 37°C for 4 days in a humidified atmosphere of air containing 5% CO2. Thereafter, the cell culture medium with or without drug was replaced by 200 µl of an aqueous PI solution (7 µg/ml propidium iodide). Applying a freeze thaw cycle to permeabilize intact cell walls, staining of DNA was achieved, and the fluorescence of each well was measured using the Cy-tofluor 4000 microplate reader (excitation 530 nm, emission 620 nm), giving a direct relationship to the total cell number. Proliferation inhibition is expressed as test versus untreated control (T/C-value [%]). IC50 and IC70 values were determined by plotting compound concentration versus cell viability.
# OVXF 899L = conditions: Ovary, OVXF 899L cell line
# Method: as §1
# RXF 1781 L = conditions: Kidney, RXF 1781 L cell line
# Method: as §1
# HCT-116 = conditions: Colon, HCT-116 cell line
# Method: as §1
# LXFA 289L = conditions: Lung, non small cell, LXFA 289L cell line
# Method: as §1
# LXFL 529L = LXFL 529L cell line
# Method: as §1
# GXF 251 L = tested on: GXF 251 L
# Method: as §1
# 22Rv1 = conditions: Prostate, 22Rv1 cell line
# Method: as §1
# H-460 = conditions: Lung, non small cell, H-460 cell line
# Method: as §1
# OVCAR-3 = conditions: Ovary, OVCAR-3 cell line
# Method: as §1
# MDA-231 = conditions: Breast, MDA-231 cell line
# Method: as §1
# OVXF 1619L = conditions: Ovary, OVXF 1619L cell line
# Method: as §1
# MEXF 520L = conditions: Melanoma, MEXF 520L cell line
# Method: as §1
smiles,measurement,setting,value
"C[C@@H]1CC(=O)[C@@H](O)[C@]2(O1)O[C@@H]1CC(=O)O[C@@H]1C1=C2C(=O)c2c(O)cccc2C1=O [Compound B, 4'-dehydro-deacetylgriseusin A]",IC50,BXF 1218L,0.056 µg/mL
same,IC70,BXF 1218L,0.133 µg/mL
same,IC50,OVXF 899L,1.265 µg/mL
same,IC70,OVXF 899L,2.249 µg/mL
same,IC50,RXF 1781 L,0.407 µg/mL
same,IC70,RXF 1781 L,1.134 µg/mL
same,IC50,HCT-116,0.697 µg/mL
same,IC70,HCT-116,1.333 µg/mL
same,IC50,LXFA 289L,8.770 µg/mL
same,IC70,LXFA 289L,14.801 µg/mL
same,IC50 value,LXFL 529L; 4 days,1.068 µg/mL
same,IC50,"LXFL 529L; Lung, non small cell",1.068 µg/mL
same,IC70,"LXFL 529L; Lung, non small cell",1.814 µg/mL
same,IC50 value,"GXF 251 L; GXF 251L cell line, 4 days",0.106 µg/mL
same,IC50,"GXF 251 L; Stomach, GXF 251 L cell line",0.106 µg/mL
same,IC70,"GXF 251 L; Stomach, GXF 251 L cell line",0.178 µg/mL
same,IC50,22Rv1,0.071 µg/mL
same,IC70,22Rv1,0.139 µg/mL
same,IC50,H-460,0.490 µg/mL
same,IC70,H-460,1.042 µg/mL
same,IC50,OVCAR-3,0.521 µg/mL
same,IC70,OVCAR-3,1.309 µg/mL
same,IC50,MDA-231,0.068 µg/mL
same,IC70,MDA-231,0.136 µg/mL
same,IC50,OVXF 1619L,0.242 µg/mL
same,IC70,OVXF 1619L,0.916 µg/mL
same,IC50,MEXF 520L,0.102 µg/mL
same,IC70,MEXF 520L,0.175 µg/mL
